These are literature values, as cited in patent US10034825B2, “Luminate eye gel” (Jan Marini Skin Research, priority 2015, dated 2018).

The conditions of the data set: after penetration through the skin to the living cells.

Turning to `CC(=O)Oc1c(C)c(C)c2c(c1C)CCC(C)(CCC[C@H](C)CCC[C@H](C)CCCC(C)C)O2` (stereo partly shown) [Tocopheryl acetate], the “fraction converted to free tocopherol” value was “about 5%”.
